Experiments:
[1] = target: T1, Glucose-dependent insulinotropic receptor (Homo sapiens, UniProt Q8TDV5); assay: Agonist activity at recombinant GPR119 receptor (unknown origin)
T1 sequence (Q8TDV5 whole entry): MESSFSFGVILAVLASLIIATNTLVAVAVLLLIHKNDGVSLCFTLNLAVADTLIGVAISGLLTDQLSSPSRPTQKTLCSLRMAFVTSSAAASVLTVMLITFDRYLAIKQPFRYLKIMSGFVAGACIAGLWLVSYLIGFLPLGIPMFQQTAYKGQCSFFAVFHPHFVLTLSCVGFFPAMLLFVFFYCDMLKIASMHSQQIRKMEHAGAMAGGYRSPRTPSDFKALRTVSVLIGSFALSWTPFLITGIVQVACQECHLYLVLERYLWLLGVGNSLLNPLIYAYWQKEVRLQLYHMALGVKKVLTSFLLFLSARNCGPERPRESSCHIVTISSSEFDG

[2] = target: Transient receptor potential cation channel subfamily V member 1 (Homo sapiens, UniProt Q8NER1); assay: Agonist activity at TRPV1 receptor (unknown origin)
Chain of Transient receptor potential cation channel subfamily V member 1 (Q8NER1 whole entry): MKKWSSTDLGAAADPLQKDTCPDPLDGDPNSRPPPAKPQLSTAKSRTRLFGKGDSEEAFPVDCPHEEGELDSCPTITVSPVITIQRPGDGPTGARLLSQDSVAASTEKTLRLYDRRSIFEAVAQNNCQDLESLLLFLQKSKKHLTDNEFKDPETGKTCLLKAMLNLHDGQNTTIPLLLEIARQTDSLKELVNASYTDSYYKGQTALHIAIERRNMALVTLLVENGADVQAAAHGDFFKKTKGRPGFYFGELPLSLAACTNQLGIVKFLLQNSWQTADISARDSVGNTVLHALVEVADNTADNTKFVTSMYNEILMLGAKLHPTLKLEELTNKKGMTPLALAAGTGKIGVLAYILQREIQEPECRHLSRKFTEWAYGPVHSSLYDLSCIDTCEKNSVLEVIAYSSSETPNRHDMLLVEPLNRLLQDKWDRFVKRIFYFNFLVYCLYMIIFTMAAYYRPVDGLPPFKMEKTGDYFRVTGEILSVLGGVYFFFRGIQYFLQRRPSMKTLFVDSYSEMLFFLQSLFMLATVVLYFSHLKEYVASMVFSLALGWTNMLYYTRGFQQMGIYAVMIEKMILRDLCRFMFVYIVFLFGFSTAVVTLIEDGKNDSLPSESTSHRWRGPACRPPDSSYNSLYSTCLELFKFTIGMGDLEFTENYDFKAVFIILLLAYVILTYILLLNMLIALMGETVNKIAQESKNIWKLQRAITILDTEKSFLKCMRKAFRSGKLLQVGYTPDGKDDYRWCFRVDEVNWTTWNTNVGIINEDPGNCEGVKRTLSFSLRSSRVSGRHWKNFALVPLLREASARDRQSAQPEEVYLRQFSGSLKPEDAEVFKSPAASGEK

Mus musculus [3] = assay: Antiobesity activity in Sabra mouse assessed as reduction in body weight at 1 mg/kg, ip administered on day 0, 10, 11, 12, 24, 29 measured on day 39 relative to control; assay type: functional; set-up: scale not given: the % may be the effect or the level left; details: route intraperitoneal
Mus musculus [4] = assay: Antiobesity activity in Sabra mouse assessed as reduction in body weight at 1 mg/kg, ip administered on day 0, 10, 11, 12, 24, 29 measured on day 36 relative to control; assay type: functional; set-up: scale not given: the % may be the effect or the level left; details: route intraperitoneal
Mus musculus [5] = assay: Antiobesity activity in Sabra mouse assessed as reduction in body weight at 1 mg/kg, ip administered on day 0, 10, 11, 12, 24, 29 measured on day 29 relative to control; assay type: functional; set-up: scale not given: the % may be the effect or the level left; details: route intraperitoneal
Mus musculus [6] = assay: Antiobesity activity in Sabra mouse assessed as reduction in body weight at 1 mg/kg, ip administered on day 0, 10, 11, 12, 24, 29 measured on day 33 relative to control; assay type: functional; set-up: scale not given: the % may be the effect or the level left; details: route intraperitoneal
Mus musculus [7] = assay: Antiobesity activity in Sabra mouse assessed as reduction in body weight at 1 mg/kg, ip administered on day 0, 10, 11, 12, 24, 29 measured on day 26 relative to control; assay type: functional; set-up: scale not given: the % may be the effect or the level left; details: route intraperitoneal
Mus musculus [8] = assay: Antiobesity activity in Sabra mouse assessed as reduction in body weight at 1 mg/kg, ip administered on day 0, 10, 11, 12, 24, 29 measured on day 24 relative to control; assay type: functional; set-up: scale not given: the % may be the effect or the level left; details: route intraperitoneal
Mus musculus [9] = assay: Antiobesity activity in Sabra mouse assessed as reduction in body weight at 1 mg/kg, ip administered on day 0, 10, 11, 12, 24, 29 measured on day 22 relative to control; assay type: functional; set-up: scale not given: the % may be the effect or the level left; details: route intraperitoneal
Mus musculus [10] = assay: Antiobesity activity in Sabra mouse assessed as reduction in body weight at 1 mg/kg, ip administered on day 0, 10, 11, 12, 24, 29 measured on day 19 relative to control; assay type: functional; set-up: scale not given: the % may be the effect or the level left; details: route intraperitoneal
Mus musculus [11] = assay: Antiobesity activity in Sabra mouse assessed as reduction in body weight at 1 mg/kg, ip administered on day 0, 10, 11, 12, 24, 29 measured on day 12 relative to control; assay type: functional; set-up: scale not given: the % may be the effect or the level left; details: route intraperitoneal

Compound | EC50 [1] | EC50 [2] | Activity (Mus musculus [3]) | Activity (Mus musculus [4]) | Activity (Mus musculus [5]) | Activity (Mus musculus [6]) | Activity (Mus musculus [7]) | Activity (Mus musculus [8]) | Activity (Mus musculus [9]) | Activity (Mus musculus [10]) | Activity (Mus musculus [11])
CCCCCCCC/C=C\CCCCCCCC(=O)NCCO [OLEOYLETHANOLAMIDE] | 3200 nM | 40 nM | -3.42% | -2.57% | -0.2% | -0.15% | 1.43% | -0.18% | -1.17% | -1.17% | -0.23%
CCCCC/C=C\C/C=C\C/C=C\C/C=C\CCCC(=O)NCCO [ANANDAMIDE] |  | 15.8 nM |  |  |  |  |  |  |  |  | 
